Source: PMC4086246 (Journal of cellular biochemistry, 2014)
Where a chain is given by its changes, count along the chain named. pIC50: −log10 of the molar value.

Key:
ABCG2 [1] = molecular target: T1, ABCG2 (Homo sapiens, UniProt Q9UNQ0, R482T); assay: [3H]-mitoxantrone accumulation in transfected cells; format: cell-based
T1 sequence (Q9UNQ0 1-655 R482T): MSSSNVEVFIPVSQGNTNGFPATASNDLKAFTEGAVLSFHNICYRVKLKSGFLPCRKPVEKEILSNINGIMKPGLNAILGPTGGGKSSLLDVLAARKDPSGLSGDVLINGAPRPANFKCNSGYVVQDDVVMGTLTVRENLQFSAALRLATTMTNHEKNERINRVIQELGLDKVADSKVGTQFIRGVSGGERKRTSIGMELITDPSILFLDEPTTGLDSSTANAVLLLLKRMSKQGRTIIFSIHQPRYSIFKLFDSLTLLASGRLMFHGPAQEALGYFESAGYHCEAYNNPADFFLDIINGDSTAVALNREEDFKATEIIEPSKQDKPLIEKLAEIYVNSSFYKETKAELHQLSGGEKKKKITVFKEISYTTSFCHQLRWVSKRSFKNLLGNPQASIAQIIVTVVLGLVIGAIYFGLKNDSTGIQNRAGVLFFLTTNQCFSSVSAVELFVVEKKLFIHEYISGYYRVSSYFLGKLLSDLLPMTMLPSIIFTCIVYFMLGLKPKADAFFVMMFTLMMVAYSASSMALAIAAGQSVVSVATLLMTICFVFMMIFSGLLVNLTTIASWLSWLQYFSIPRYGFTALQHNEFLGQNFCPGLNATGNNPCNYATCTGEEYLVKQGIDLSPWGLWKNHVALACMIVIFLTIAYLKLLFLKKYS

ABCG2 [2] = molecular target: T2, ABCG2 (Homo sapiens, UniProt Q9UNQ0, R482G); assay: as above; format: cell-based
T2 sequence (Q9UNQ0 1-655 R482G): T1 sequence (Q9UNQ0 1-655 R482T) with T482G

ABCG2 [3] = molecular target: T3, ABCG2 (Homo sapiens, UniProt Q9UNQ0); assay: inhibition of […]-IAAP photoaffinity labeling in membranes; format: binding
T3 sequence (Q9UNQ0 1-655): T1 sequence (Q9UNQ0 1-655 R482T) with T482R

pIC50 (ABCG2 [3]): 5.43
SMILES: C[C@@H]1COC(Nc2ccc3ncnc(Nc4ccc(OCc5nccs5)c(Cl)c4)c3c2)=N1 [ARRY-334543]
[3H]-mitoxantrone accumulation in transfected cells (0.25 and 1.0 μM) (ABCG2 [1]): significantly increased intracellular levels of [^3H]-MX in the NCI-H460, NCI-H460/MX20, ABCG2-482-R2, ABCG2-482-G2, and ABCG2-482-T7 cells | [3H]-mitoxantrone accumulation in transfected cells (0.25 and 1.0 μM) (ABCG2 [2]): significantly increased intracellular levels of [^3H]-MX in the NCI-H460, NCI-H460/MX20, ABCG2-482-R2, ABCG2-482-G2, and ABCG2-482-T7 cells
